Source: PubChem BioAssay AID248 (DTP/NCI, 2004)
Values joined by “and” are separate entries in the source; they are usually repeats but may differ in a detail not shown here. Identical values can stand only once. Toxic doses and inconclusive results are not listed.

System: L1210 leukemia ip in BDF1 mice, survival T/C
Assay: NCI In Vivo Anticancer Drug Screen. Data for tumor model L1210 Leukemia (intraperitoneal) in B6D2F1 (BDF1) mice
Conditions: endpoint: mean survival time, higher = longer survival
Summary of the method: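 Read-out is survival time, reported as the treated-group measurement over the vehicle-control measurement.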

With `NC(=S)N/N=C/c1ccccn1` the T/C (dose: 0.48 mg/kg/injection, schedule: Q01DX009 (ip), vehicle: saline with Tween-80) was 97 % of control and 115 % of control, the T/C (dose: 0.9 mg/kg/injection, schedule: Q04DX002 (ip), vehicle: saline with Tween-80) was 100 % of control and 107 % of control and the T/C (dose: 0.95 mg/kg/injection, schedule: Q01DX009 (ip), vehicle: saline with Tween-80) was 106 % of control and 115 % of control. For the same molecule, the T/C (dose: 1.0 mg/kg/injection, schedule: Q03HX032 (ip), vehicle: other) was 117 % of control, the T/C (dose: 1.3 mg/kg/injection, schedule: Q01DX Z (ip), vehicle: carboxymethylcellulose (CMC)) was 118 % of control and the T/C (dose: 1.8 mg/kg/injection, schedule: Q03HX024 (ip), vehicle: carboxymethylcellulose (CMC)) was 92 % of control. For the same molecule, the T/C (dose: 1.8 mg/kg/injection, schedule: Q03HX024 (ip), vehicle: other) was 111 % of control, the T/C (dose: 1.8 mg/kg/injection, schedule: Q04DX002 (ip), vehicle: saline with Tween-80) was 106 % of control and 110 % of control and the T/C (dose: 1.9 mg/kg/injection, schedule: Q01DX009 (ip), vehicle: saline with Tween-80) was 113 % of control and 121 % of control. For the same molecule, the T/C (dose: 2.6 mg/kg/injection, schedule: Q03HX032 (ip), vehicle: other) was 213 % of control, the T/C (dose: 3.0 mg/kg/injection, schedule: Q01DX015 (ip), vehicle: saline) was 105 % of control and the T/C (dose: 3.0 mg/kg/injection, schedule: Q03HX032 (ip), vehicle: other) was 168 % of control. The T/C (dose: 3.5 mg/kg/injection, schedule: Q03HX008 (ip), vehicle: other) was 164 % of control, the T/C (dose: 3.5 mg/kg/injection, schedule: Q03HX016 (ip), vehicle: other) was 192 % of control and the T/C (dose: 3.5 mg/kg/injection, schedule: Q03HX024 (ip), vehicle: other) was 368 % of control. For the same molecule, the T/C (dose: 3.5 mg/kg/injection, schedule: Q04DX002 (ip), vehicle: saline with Tween-80) was 104 % of control and 91 % of control, the T/C (dose: 3.8 mg/kg/injection, schedule: Q01DX009 (ip), vehicle: saline with Tween-80) was 121 % of control and the T/C (dose: 4.0 mg/kg/injection, schedule: Q03HX024 (ip), vehicle: carboxymethylcellulose (CMC)) was 197 % of control. The T/C (dose: 4.0 mg/kg/injection, schedule: Q03HX024 (ip), vehicle: other) was 337 % of control, the T/C (dose: 4.0 mg/kg/injection, schedule: Q03HX024 (ip), vehicle: saline with Tween-80) was 345 % of control and the T/C (dose: 4.4 mg/kg/injection, schedule: Q01DX009 (ip), vehicle: saline) was 114 % of control. The T/C (dose: 4.4 mg/kg/injection, schedule: Q02DX010 (ip), vehicle: carboxymethylcellulose (CMC)) was 114 % of control, the T/C (dose: 5.0 mg/kg/injection, schedule: Q01DX015 (ip), vehicle: saline) was 103 % of control and the T/C (dose: 5.0 mg/kg/injection, schedule: Q03HX008 (ip), vehicle: other) was 175 % of control. The T/C (dose: 5.0 mg/kg/injection, schedule: Q03HX016 (ip), vehicle: other) was 261 % of control, the T/C (dose: 5.0 mg/kg/injection, schedule: Q03HX024 (ip), vehicle: other) was 526 % of control and the T/C (dose: 5.0 mg/kg/injection, schedule: Q03HX032 (ip), vehicle: other) was 420 % of control. The T/C (dose: 5.0 mg/kg/injection, schedule: Q04DX003 (ip), vehicle: other) was 105 % of control, the T/C (dose: 5.0 mg/kg/injection, schedule: Q04DX003 (ip), vehicle: saline with Tween-80) was 116 % of control and the T/C (dose: 5.0 mg/kg/injection, schedule: Q08DX002 (ip), vehicle: other) was 102 % of control. For the same molecule, the T/C (dose: 6.0 mg/kg/injection, schedule: Q03HX024 (ip), vehicle: saline with Tween-80) was 376 % of control, the T/C (dose: 6.6 mg/kg/injection, schedule: Q02DX010 (ip), vehicle: carboxymethylcellulose (CMC)) was 121 % of control and the T/C (dose: 6.7 mg/kg/injection, schedule: Q01DX015 (ip), vehicle: other) was 169 % of control. For the same molecule, the T/C (dose: 6.7 mg/kg/injection, schedule: Q02DX010 (ip), vehicle: carboxymethylcellulose (CMC)) was 114 % of control, the T/C (dose: 7.0 mg/kg/injection, schedule: Q01DX015 (ip), vehicle: saline) was 152 % of control and the T/C (dose: 7.0 mg/kg/injection, schedule: Q04DX002 (ip), vehicle: saline with Tween-80) was 107 % of control and 116 % of control. For the same molecule, the T/C (dose: 7.5 mg/kg/injection, schedule: Q03HX032 (ip), vehicle: other) was 150 % of control, the T/C (dose: 8.0 mg/kg/injection, schedule: Q04DX003 (ip), vehicle: other) was 101 % of control and the T/C (dose: 8.0 mg/kg/injection, schedule: Q08DX002 (ip), vehicle: other) was 104 % of control. For the same molecule, the T/C (dose: 10.0 mg/kg/injection, schedule: Q01DX009 (ip), vehicle: other) was 155 % of control, the T/C (dose: 10.0 mg/kg/injection, schedule: Q01DX009 (ip), vehicle: saline) was 114 % of control and the T/C (dose: 10.0 mg/kg/injection, schedule: Q01DX015 (ip), vehicle: other) was 164 % of control. For the same molecule, the T/C (dose: 10.0 mg/kg/injection, schedule: Q02DX010 (ip), vehicle: carboxymethylcellulose (CMC)) was 120 % of control, the T/C (dose: 10.0 mg/kg/injection, schedule: Q04DX003 (ip), vehicle: saline with Tween-80) was 114 % of control and the T/C (dose: 10.7 mg/kg/injection, schedule: Q01DX Z (ip), vehicle: carboxymethylcellulose (CMC)) was 116 % of control. The T/C (dose: 11.0 mg/kg/injection, schedule: Q01DX015 (ip), vehicle: saline) was 116 % of control, the T/C (dose: 12.0 mg/kg/injection, schedule: Q04DX003 (ip), vehicle: other) was 107 % of control and the T/C (dose: 12.0 mg/kg/injection, schedule: Q08DX002 (ip), vehicle: other) was 100 % of control. The T/C (dose: 14.0 mg/kg/injection, schedule: Q04DX002 (ip), vehicle: saline with Tween-80) was 110 % of control and 112 % of control, the T/C (dose: 14.5 mg/kg/injection, schedule: Q01DX001 (ip), vehicle: other) was 105 % of control and the T/C (dose: 15.0 mg/kg/injection, schedule: Q01DX009 (ip), vehicle: other) was 159 % of control. The T/C (dose: 15.0 mg/kg/injection, schedule: Q02DX010 (ip), vehicle: carboxymethylcellulose (CMC)) was 120 % of control and 121 % of control (2×), the T/C (dose: 17.0 mg/kg/injection, schedule: Q01DX015 (ip), vehicle: saline) was 104 % of control and the T/C (dose: 18.0 mg/kg/injection, schedule: Q04DX003 (ip), vehicle: other) was 112 % of control. For the same molecule, the T/C (dose: 18.0 mg/kg/injection, schedule: Q08DX002 (ip), vehicle: other) was 97 % of control, the T/C (dose: 20.0 mg/kg/injection, schedule: Q04DX003 (ip), vehicle: saline with Tween-80) was 109 % of control and the T/C (dose: 22.0 mg/kg/injection, schedule: Q01DX001 (ip), vehicle: other) was 101 % of control and 114 % of control. For the same molecule, the T/C (dose: 22.5 mg/kg/injection, schedule: Q02DX010 (ip), vehicle: carboxymethylcellulose (CMC)) was 109 % of control and 90 % of control, the T/C (dose: 25.0 mg/kg/injection, schedule: Q01DX015 (ip), vehicle: saline) was 90 % of control and the T/C (dose: 27.0 mg/kg/injection, schedule: Q04DX003 (ip), vehicle: other) was 104 % of control. For the same molecule, the T/C (dose: 27.0 mg/kg/injection, schedule: Q08DX002 (ip), vehicle: other) was 95 % of control, the T/C (dose: 28.0 mg/kg/injection, schedule: Q04DX002 (ip), vehicle: saline with Tween-80) was 104 % of control and 107 % of control and the T/C (dose: 30.0 mg/kg/injection, schedule: Q01DX009 (ip), vehicle: saline with Tween-80) was 90 % of control. For the same molecule, the T/C (dose: 33.0 mg/kg/injection, schedule: Q01DX001 (ip), vehicle: other) was 105 % of control and 112 % of control, the T/C (dose: 34.0 mg/kg/injection, schedule: Q02DX010 (ip), vehicle: carboxymethylcellulose (CMC)) was 73 % of control and 89 % of control and the T/C (dose: 50.0 mg/kg/injection, schedule: Q01DX001 (ip), vehicle: other) was 104 % of control.

With `CCCCCc1ccc(C(=O)O)cc1` the T/C (dose: 25.0 mg/kg/injection, schedule: Q01DX009 (ip), vehicle: saline with Tween-80) was 103 % of control, the T/C (dose: 25.0 mg/kg/injection, schedule: Q04DX003 (ip), vehicle: saline with Tween-80) was 106 % of control and the T/C (dose: 50.0 mg/kg/injection, schedule: Q01DX009 (ip), vehicle: saline with Tween-80) was 98 % of control. The T/C (dose: 50.0 mg/kg/injection, schedule: Q04DX003 (ip), vehicle: saline with Tween-80) was 101 % of control, the T/C (dose: 100.0 mg/kg/injection, schedule: Q01DX009 (ip), vehicle: saline with Tween-80) was 97 % of control and the T/C (dose: 100.0 mg/kg/injection, schedule: Q04DX003 (ip), vehicle: saline with Tween-80) was 98 % of control and 102 % of control.

In the case of `CN(C)c1ccc(/C=N/NC(=O)c2ccncc2)c(Cl)c1`, the T/C (dose: 100.0 mg/kg/injection, schedule: Q01DX009 (ip), vehicle: Klucel (hydroxypropylcellulose) (HPC)) is reported as 96 % of control, the T/C (dose: 200.0 mg/kg/injection, schedule: Q01DX009 (ip), vehicle: Klucel (hydroxypropylcellulose) (HPC)) is reported as 89 % of control and the T/C (dose: 400.0 mg/kg/injection, schedule: Q01DX009 (ip), vehicle: Klucel (hydroxypropylcellulose) (HPC)) is reported as 91 % of control.

In the case of `C1=C(N2CCOCC2)CCCCC1`, the T/C (dose: 100.0 mg/kg/injection, schedule: Q01DX009 (ip), vehicle: saline) is reported as 108 % of control, the T/C (dose: 200.0 mg/kg/injection, schedule: Q01DX009 (ip), vehicle: saline) is reported as 109 % of control and the T/C (dose: 400.0 mg/kg/injection, schedule: Q01DX009 (ip), vehicle: saline) is reported as 108 % of control.

With `c1ccc(C2=Nc3ccccc3NC2c2ccccc2)cc1` (stereo unspecified) the T/C (dose: 50.0 mg/kg/injection, schedule: Q04DX003 (ip), vehicle: Klucel (hydroxypropylcellulose) (HPC)) was 100 % of control, the T/C (dose: 100.0 mg/kg/injection, schedule: Q04DX003 (ip), vehicle: Klucel (hydroxypropylcellulose) (HPC)) was 89 % of control and the T/C (dose: 200.0 mg/kg/injection, schedule: Q04DX003 (ip), vehicle: Klucel (hydroxypropylcellulose) (HPC)) was 98 % of control.
